Laboratory results: patent EP4471049A1 (Zealand Pharma A/S, priority 2023, dated 2024)
*1 amine or outer side, *2 acyl side, *3 side chain or, on linkers, in order; H or OH if unused. Where a SMILES comes first, the peptide text is derived from it. Bridges are numbered along the chain shown (N, C = ends). [ ]: non-standard residue; d: D form. 2Nal = N[C@@H](Cc1ccc2ccccc2c1)C(=O)O; AEF = NCCOc1ccc(C[C@H](N)C(=O)O)cc1; X1 = O=C(Cc1ccc(CN[*:1])cc1)[*:2]; 3Pal = N[C@@H](Cc1cccnc1)C(=O)O; Cit = NC(=O)NCCC[C@H](N)C(=O)O; αMeL = CC(C)C[C@](C)(N)C(=O)O; Orn = NCCC[C@H](N)C(=O)O; Dab = NCC[C@H](N)C(=O)O

Experiments:
[1] = Peptide stability in simulated intestinal fluid (SIF); assay type: in vitro ADME; conditions: 37 °C, pH 6.8, porcine pancreatin 10 g/L, 10 µM; for remaining at 1 h, 10 µM / remaining at 4 h, 10 µM: pig, simulated intestinal fluid (SIF) with porcine pancreatin; for remaining at 4 h, 10 µM: read-out: SIF (% remaining 4 h)
Experimental: SGF was prepared by dissolving sodium chloride (0.2 g) in 50 mL of water. A volume of 0.7 mL of 10 M HCl was added to adjust the pH of the solution to 1.2 and the volume made up to 100 mL with water. […] SIF was prepared by dissolving monobasic potassium phosphate (0.68 g) in 50 mL of water and adjusting the pH to 6.8 with 1 M NaOH. The volume was subsequently made up to 100 mL with water. 200 mg porcine pancreatin (P1625, Sigma Aldrich) was gently dissolved into 20 mL preheated (37 °C) solution (10 g/L) immediately prior to the incubation.
The incubation was performed at 37 °C with gentle shaking. […] After the last timepoint, the sampling plate was mixed for 10 min on a shaking table and centrifuged 10 min at 2200 g. 70 µL resulting supernatant was diluted with 150 µL water, mixed and centrifugated before analysis by liquid chromatography high resolution mass spectrometry. […] Percent remaining at each timepoint was calculated relative to timepoint zero based on absolute peak areas.
Compounds with a SIF stability (after 4 h) above 70% are considered highly SIF stable.

human IL-23R = target: T1, human IL-23R (Homo sapiens, UniProt Q5VWK5); experiment: biochemical; conditions: for Emax: read-out: % displacement (hIL-23R binding)
T1 sequence (Q5VWK5 22-629): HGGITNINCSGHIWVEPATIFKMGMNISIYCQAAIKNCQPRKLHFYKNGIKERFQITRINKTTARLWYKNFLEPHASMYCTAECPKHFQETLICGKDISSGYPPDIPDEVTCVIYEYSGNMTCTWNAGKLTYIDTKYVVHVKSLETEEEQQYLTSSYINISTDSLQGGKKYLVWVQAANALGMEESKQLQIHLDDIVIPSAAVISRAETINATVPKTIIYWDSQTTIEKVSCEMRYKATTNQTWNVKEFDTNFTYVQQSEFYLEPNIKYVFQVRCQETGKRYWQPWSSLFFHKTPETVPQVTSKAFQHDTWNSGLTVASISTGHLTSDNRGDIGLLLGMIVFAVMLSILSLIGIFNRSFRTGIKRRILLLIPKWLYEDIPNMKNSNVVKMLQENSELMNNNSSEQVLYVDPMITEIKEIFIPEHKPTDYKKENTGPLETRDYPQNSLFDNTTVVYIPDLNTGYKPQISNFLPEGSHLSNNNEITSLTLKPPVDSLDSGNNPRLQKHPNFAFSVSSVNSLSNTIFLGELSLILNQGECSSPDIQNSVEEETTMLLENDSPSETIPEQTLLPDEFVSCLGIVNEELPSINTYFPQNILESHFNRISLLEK
Text: The compound binding affinity for IL-23R was estimated by the ability of compounds to displace a fluorophore-labelled reference compound from the human IL-23R. The assay principle relies on Bioluminescence Resonance Energy Transfer (BRET) between a fluorophore-labelled reference compound binding to the IL-23R part of a fusion protein consisting of the IL-23R fused to a Nanoluc luciferase enzyme (Nanoluc). The Nanoluc is placed in the N-terminus in close proximity to the binding domain of the ligand. Upon close proximity between the fluorophore of the fluorophore-labelled compound and the Nanoluc of the fusion protein, bioluminescence energy generated from conversion of a Nanoluc substrate, is transferred to the fluorophore resulting in an increase in BRET. In presence of an unlabelled compound, the unlabelled compound displaces the fluorophore-labelled peptide from its binding site resulting in a decrease in BRET. The concentration for which half of the fluorophore-labelled peptide is displaced by the unlabelled compound depends on the affinity of the compound for the IL-23R, and is termed the IC50 concentration.
The plasmid also contained a gene to confer resistance for the antibiotic hygromycin. A cell line stably expressing the Nluc-IL23R fusion protein was generated by transfection of HEK293 cells with the expression plasmid and selected with hygromycin for 3 weeks in Growth medium consisting of DMEM w/ Glutamax-I containing, 10% V/V FBS, 1% V/V P/S, 1 mM Sodium Pyruvate, and 1X NEAA, and 0.3 mg/mL hygromycin. The remaining cells were propagated and considered a stable expressing Nluc-IL23R fusion protein pool clone.
Cells expressing the Nluc-IL23R fusion protein were expanded in Growth medium and membranes prepared by homogenization of a cell pellet from 18 T175 flasks (4 °C in subsequent steps). The cell pellet was lysed Tris 10 mM, 7.5, 1 mM EDTA and protease inhibitors (Complete, Roche) and homogenized using a 15 mL glass-dounce by 50 strokes. The homogenate was spun at spin @1500 rpm for 10 min, the supernatant transferred to SV-34 tubes and spun at 40000g for 20 min at 4 °C to pellet the crude membranes. The supernatant was then removed, the pellet resuspended in 5 mL buffer containing 50 mM HEPES pH 7.4, 5 mM EGTA, and 5 mM MgCl2, and homogenized. Aliquots of the resuspended and homogenized membranes containing the Nluc-IL23R fusion protein were stored at -80 °C until use.
The plate was sealed with light impermeable plate seals, and incubated on an orbital shaker 400 rpm for 2 hours at room temperature. To determine the BRET ratio, the plate seal was removed and 25 µL of the Nanoluc substrate (Promega N1572) diluted 1:500 was added to each well and incubated for 1-2 minutes on an orbital shaker at 400 rpm. […] The BRET ratio was calculated as the fluorescence from the TAMRA/nanoluc bioluminescence.
Compound potency (IC50) and maximal displacement (% displacement) were estimated by computer-aided curve fitting using a 4-parameter logistic (4PL) non-linear model. […]
In this application, the inventors provide the data as IC50 values.

| Structure (SMILES) | remaining at 1 h, 10 µM [1] | remaining at 4 h, 10 µM [1] | % displacement (hIL-23R binding) (human IL-23R) | IC50 (human IL-23R) | Emax (human IL-23R) | SIF (% remaining 1 h) [1] | SIF (% remaining 4 h) [1] |
| --- | --- | --- | --- | --- | --- | --- | --- |
| CC(C)C[C@@H]1NC(=O)[C@H](Cc2c[nH]c3ccccc23)NC(=O)[C@H](Cc2c[nH]c3ccccc23)NC(=O)[C@@H]2CSCC(=O)CSC[C@H](NC(=O)[C@H]([C@@H](C)O)NC(=O)[C@@H](NC(=O)CN)CSCC(=O)CSC[C@@H](C(=O)N[C@@H](CO)C(N)=O)NC1=O)C(=O)N[C@@H](Cc1c[nH]c3ccccc13)C(=O)N[C@@H](CCC(=O)O)C(=O)N2 (single isomer, unassigned) [I1 (isomer 3), H-GC(1a)TC(2a)WEC(2a)WWLC(1a)S-[NH2], reference compound] | – | – | – | – | – | 0% | 0% |
| CSCC[C@H](NC(=O)[C@@H]1CSCC(=O)CSC[C@H](NC(=O)[C@@H](N)CCC(=O)O)C(=O)N[C@@H](Cc2c[nH]c3ccccc23)C(=O)N[C@@H](CC(C)C)C(=O)N[C@H]2CSCC(=O)CSC[C@H](NC(=O)[C@H](CC(N)=O)NC(=O)[C@H](CCCNC(=N)N)NC(=O)[C@H](Cc3ccc(O)cc3)NC(=O)[C@H](Cc3ccc(O)cc3)NC2=O)C(=O)N[C@@H](CC(N)=O)C(=O)N1)C(N)=O (single isomer, unassigned) [I4 (isomer 3), H-EC(4a)WLC(5a)YYRNC(5a)NC(4a)M-[NH2], reference compound] | – | – | – | – | – | 0% | 0% |
| CNC(=O)[C@H](Cc1cccnc1)NC(=O)[C@H](CCN)NC(=O)[C@@H]1CCC(=O)NCc2ccc(cc2)CC(=O)N[C@@H](C)C(=O)N[C@H]2CCC(=O)NCC[C@H](NC(=O)[C@H](CCC(N)=O)NC(=O)[C@H](Cc3c[nH]c4ccccc34)NC2=O)C(=O)N[C@@H](Cc2ccc(OCCN)cc2)C(=O)N[C@@H](Cc2ccc3ccccc3c2)C(=O)N[C@@](C)(CC(C)C)C(=O)N1 [Compound 20, [4-Aminomethyl-phenylacetyl](1c)*AE(2c)WQ[Dab](2c)[Y(2-aminoethoxy)][2-Nal][2-Me-Leu]E(1c)[Dab][3-(3-Pyridyl)-Ala]-[NHMe]] | 109% | 90% | 97% | 12 pM | – | – | – |
| CNC(=O)[C@H](Cc1cccnc1)NC(=O)[C@H](CCN)NC(=O)[C@@H]1CCC(=O)NCc2ccc(cc2)CC(=O)N[C@@H](Cc2ccccc2)C(=O)N[C@H]2CCC(=O)NCC[C@H](NC(=O)[C@H](CCC(N)=O)NC(=O)[C@H](Cc3c[nH]c4ccccc34)NC2=O)C(=O)N[C@@H](Cc2ccc(OCCN)cc2)C(=O)N[C@@H](Cc2ccc3ccccc3c2)C(=O)N[C@@](C)(CC(C)C)C(=O)N1 [Compound 21, [4-Aminomethyl-phenylacetyl](1c)*FE(2c)WQ[Dab](2c)[Y(2-aminoethoxy)][2-Nal][2-Me-Leu]E(1c)[Dab][3-(3-Pyridyl)-Ala]-[NHMe]] ([X1]FEWQ[Dab][AEF][2Nal][αMeL]E[Dab][3Pal]-NHMe; lactam 3-6, N-10) | 53% | – | – | 14 pM | 95% | – | – |
| CNC(=O)[C@H](Cc1cccnc1)NC(=O)[C@H](CCN)NC(=O)[C@@H]1CCC(=O)NCc2ccc(cc2)CC(=O)N[C@@H](CO)C(=O)N[C@H]2CCC(=O)NCC[C@H](NC(=O)[C@H](CCCNC(N)=O)NC(=O)[C@H](Cc3c[nH]c4ccccc34)NC2=O)C(=O)N[C@@H](Cc2ccc(OCCN)cc2)C(=O)N[C@@H](Cc2ccc3ccccc3c2)C(=O)N[C@@](C)(CC(C)C)C(=O)N1 [Compound 26, [4-Aminomethyl-phenylacetyl](1c)*SE(2c)W[Cit][Dab](2c)[Y(2-aminoethoxy)][2-Nal][2-Me-Leu]E(1c)[Dab][3-(3-Pyridyl)-Ala]-[NHMe]] ([X1]SEW[Cit][Dab][AEF][2Nal][αMeL]E[Dab][3Pal]-NHMe; lactam 3-6, N-10) | – | 91% | – | 15 pM | 95% | – | – |
| CNC(=O)[C@H](Cc1cccnc1)NC(=O)[C@H](CCN)NC(=O)[C@@H]1CCC(=O)NCc2ccc(cc2)CC(=O)N[C@@H](CO)C(=O)N[C@H]2CCC(=O)NCC[C@H](NC(=O)[C@H](CCCN)NC(=O)[C@H](Cc3c[nH]c4ccccc34)NC2=O)C(=O)N[C@@H](Cc2ccc(OCCN)cc2)C(=O)N[C@@H](Cc2ccc3ccccc3c2)C(=O)N[C@@](C)(CC(C)C)C(=O)N1 [Compound 28, [4-Aminomethyl-phenylacetyl](1c)*SE(2c)W[Orn][Dab](2c)[Y(2-aminoethoxy)][2-Nal][2-Me-Leu]E(1c)[Dab][3-(3-Pyridyl)-Ala]-[NHMe]] ([X1]SEW[Orn][Dab][AEF][2Nal][αMeL]E[Dab][3Pal]-NHMe; lactam 3-6, N-10) | – | 110% | 97% | – | – | – | – |

Second part, led by results:

| remaining at 1 h, 10 µM [1] | remaining at 4 h, 10 µM [1] | % displacement (hIL-23R binding) (human IL-23R) | IC50 (human IL-23R) | Emax (human IL-23R) | Structure (SMILES) | SIF (% remaining 1 h) [1] | SIF (% remaining 4 h) [1] |
| --- | --- | --- | --- | --- | --- | --- | --- |
| – | 92% | 96% | – | – | CNC(=O)CC[C@@H]1NC(=O)[C@H](Cc2c[nH]c3ccccc23)NC(=O)[C@@H]2CCC(=O)NCC[C@H](NC1=O)C(=O)N[C@@H](Cc1ccc(OCCN)cc1)C(=O)N[C@@H](Cc1ccc3ccccc3c1)C(=O)N[C@@](C)(CC(C)C)C(=O)N[C@H](C(=O)N[C@@H](CCN)C(=O)N[C@@H](Cc1cccnc1)C(=O)NC)CCC(=O)NCc1ccc(cc1)CC(=O)N[C@@H](CO)C(=O)N2 [Compound 29, [4-Aminomethyl-phenylacetyl](1c)*SE(2c)W[Q(Me)][Dab](2c)[Y(2-aminoethoxy)][2-Nal][2-Me-Leu]E(1c)[Dab][3-(3-Pyridyl)-Ala]-[NHMe]] ([X1]SEWE(NHMe)[Dab][AEF][2Nal][αMeL]E[Dab][3Pal]-NHMe; lactam 3-6, N-10) | – | – |
| – | 94% | 104% | 18 pM | – | CNC(=O)[C@H](Cc1cccnc1)NC(=O)[C@H](CCN)NC(=O)[C@@H]1CCC(=O)NCc2ccc(cc2)CC(=O)N[C@@H](CO)C(=O)N[C@H]2CCC(=O)NCC[C@H](NC(=O)[C@H](CCC(=O)N(C)C)NC(=O)[C@H](Cc3c[nH]c4ccccc34)NC2=O)C(=O)N[C@@H](Cc2ccc(OCCN)cc2)C(=O)N[C@@H](Cc2ccc3ccccc3c2)C(=O)N[C@@](C)(CC(C)C)C(=O)N1 [Compound 30, [4-Aminomethyl-phenylacetyl](1c)*SE(2c)W[Q(2Me)][Dab](2c)[Y(2-aminoethoxy)][2-Nal][2-Me-Leu]E(1c)[Dab][3-(3-Pyridyl)-Ala]-[NHMe]] ([X1]SEWE(NMe2)[Dab][AEF][2Nal][αMeL]E[Dab][3Pal]-NHMe; lactam 3-6, N-10) | – | – |
